Results published in patent US20170135948A1, “COMPOSITION COMPRISING EXTRACT OF AUTUMN SOYBEAN LEAVES” (AMOREPACIFIC CORPORATION, priority 2014, published 2017).
Blank lines part the entries; values can stand above or below the compound they belong to.

What was measured:
collagenase = experiment: Collagenase production inhibition test in human fibroblasts; type: cell-based; conditions: 10^−4 M tocopherol or EGCG, 24 hours, untreated group = 100
Description: The activity of inhibiting collagenase production of the soybean leaf extracts of stages VC, V2, V4, R2, R4, R6 and R7 prepared in Example 1 was compared with those of tocopherol (Comparative Example 1) and EGCG (Comparative Example 2). Tocopherol and EGCG are known to prevent skin aging by regenerating epidermal cells.
Human fibroblasts (Cascade Biologics, Portland, Oreg., USA) were added to a 96-well microtiter plate containing Dulbecco's modified Eagle's medium (DMEM) supplemented with 2.5 wt % fetal bovine serum, at 5,000 cells/well, and cultured to about 90% confluence. Then, after culturing in serum-free DMEM for 24 hours and treating with 100 μg/mL of each of the soybean leaf extracts of stages VC, V2, V4, R2, R4, R6 and R7 prepared in Example 1 or 10^−4 M tocopherol or EGCG (Sigma Aldrich) for 24 hours, the cell culture was harvested.
The production of collagenase in the cell culture harvested was measured using a collagenase measuring system (Amersham Pharmacia, USA). […]
A absorbance of a cell culture obtained without treating with the composition was used as a control group. That is to say, the expression level of collagenase in the group treated with the test substance was calculated relative to that of the untreated group as 100.
Collagenase expression level (%)=Absorbance of group treated with test substance/Absorbance of control group×100 [Equation 1]

[1] = Antioxidative activity test based on DPPH reduction; type: biochemical; conditions: sample concentration at which absorbance at 540 nm decreased by 50%; 100 μM DPPH, 37° C., 30 minutes
Description: In order to investigate the antioxidative activity of the soybean leaf extracts of stages VC, V2, V4, R2, R4, R6 and R7 prepared in Example 1, the effect of inhibiting the oxidation of the free radical 1,1-diphenyl-2-picrylhydrazyl (DPPH) was compared by measuring the change in absorbance caused by reduction of DPPH.
190 μL of a 100 μM (in ethanol) DPPH solution and each of the soybean leaf extracts of stages VC, V2, V4, R2, R4, R6 and R7 obtained in Example 1 and 10,000 ppm Trolox (positive control), a synthetic antioxidant are prepared at a concentration of 10,000 ppm, diluted to a final concentration of 500 ppm, 250 ppm, 125 ppm, 62.5 ppm, 31.25 ppm or 15.63 ppm. 10 μL of each of them were mixed to prepare a reaction solution, and absorbance was measured at 540 nm after incubation at 37° C. for 30 minutes. IC50 means the sample concentration when the absorbance was decreased by 50% due to the added sample.

[2] = Irritation test (pricking, flushing) on the face of 15 panels sensitive to irritation; type: in vivo
Description: Retinol as a known antiaging substance and the autumn soybean leaf (stage R7) extract as an active ingredient of the present disclosure were tested comparatively for irritation by 15 panels who are sensitive to irritation such as pricking, flushing, etc.
The panels were asked to apply 0.5 mL of retinol (purchased from Sigma) or the autumn soybean leaf extract obtained in Example 1 (1 mg/mL) randomly on each face and score between 0 and 3.0 points with 0.1-point intervals.
1.1-2.0: Moderate irritation.
2.1-3.0: Severe irritation.

[3] = score 0 to 3.0 points, 0.5 mL applied on face, extract 1 mg/mL, 15 panels

Structure (SMILES): Cc1c(C)c2c(c(C)c1O)CC[C@@](C)(CCC[C@H](C)CCC[C@H](C)CCCC(C)C)O2 [Tocopherol (Comparative Example 1), tocopherol]
Collagenase expression level (%) (collagenase): 74%

IC50 (ppm) [1]: 38 ppm
Structure (SMILES): Cc1c(C)c2c(c(C)c1O)CCC(C)(C(=O)O)O2 (stereo not shown) [Trolox (positive control), Trolox]

Structure (SMILES): O=C(O[C@@H]1Cc2c(O)cc(O)cc2O[C@@H]1c1cc(O)c(O)c(O)c1)c1cc(O)c(O)c(O)c1 [EGCG (Comparative Example 2), EGCG]
Collagenase expression level (%) (collagenase): 61%

Structure (SMILES): CC1=C(/C=C/C(C)=C/C=C/C(C)=C/CO)C(C)(C)CCC1 [Retinol]
Irritation such as pricking and flushing (in words) ([2]; grade by the scoring standard, 0.5 mL applied on face): slight irritation
Mean (irritation score) ([2]; mean of pricking and flushing scores, 0 to 3.0 points): 0.65
Flushing (irritation score) [2, 3]: 0.42
Pricking (irritation score) [2, 3]: 0.87
